Data as given in ChEMBL document CHEMBL1201862, “PubChem BioAssay data set” (2004).
Each block holds one compound with its values, some of them ahead of it. The source made the active and inactive calls.

Key:
Bcl-2-related protein A1 [1] = target: T1, Bcl-2-related protein A1 (Mus musculus, UniProt Q07440); assay: Bfl-1 inhibitors blocking BH3 peptide binding, confirmation, biochemical, TR-FRET, mouse Bfl-1 (AID 621);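 note: TR-FRET binding of GST-Bfl-1 to FITC-labelled Bid peptide via terbium antibody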
T1 sequence (Q07440 whole entry): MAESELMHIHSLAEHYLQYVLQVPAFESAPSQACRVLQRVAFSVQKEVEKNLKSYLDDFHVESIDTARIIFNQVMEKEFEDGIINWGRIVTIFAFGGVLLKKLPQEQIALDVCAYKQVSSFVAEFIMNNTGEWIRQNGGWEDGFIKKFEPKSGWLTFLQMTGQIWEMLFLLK

Bcl-2-related protein A1 [2] = target: T1, Bcl-2-related protein A1; assay: Bfl-1 binding inhibitors, SAR follow-up, biochemical, fluorescence polarization (AID 1070)
NADPH oxidase 1 [3] = target: T2, NADPH oxidase 1 (Homo sapiens, UniProt Q9Y5S8); assay: Luminescence-based cell-based dose response assay to identify inhibitors of NADPH oxidase 1 (NOX1).; type: functional
T2 sequence (Q9Y5S8 whole entry): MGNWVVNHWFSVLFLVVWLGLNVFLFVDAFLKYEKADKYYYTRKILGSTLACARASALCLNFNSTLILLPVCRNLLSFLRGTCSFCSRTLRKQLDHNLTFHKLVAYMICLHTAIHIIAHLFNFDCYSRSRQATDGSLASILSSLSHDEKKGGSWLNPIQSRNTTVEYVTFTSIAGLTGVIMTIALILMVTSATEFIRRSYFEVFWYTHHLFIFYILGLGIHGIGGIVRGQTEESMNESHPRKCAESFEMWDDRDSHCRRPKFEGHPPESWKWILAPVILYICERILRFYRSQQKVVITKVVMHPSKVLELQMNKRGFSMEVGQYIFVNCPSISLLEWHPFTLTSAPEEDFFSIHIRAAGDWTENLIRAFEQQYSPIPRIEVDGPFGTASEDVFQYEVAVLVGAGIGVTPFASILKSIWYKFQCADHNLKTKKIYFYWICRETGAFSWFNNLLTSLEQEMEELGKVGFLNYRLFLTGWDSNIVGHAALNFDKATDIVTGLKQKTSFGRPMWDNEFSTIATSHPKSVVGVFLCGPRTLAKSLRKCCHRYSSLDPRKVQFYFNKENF

NADPH oxidase 1 [4] = target: T2, NADPH oxidase 1; assay: Late-stage luminescence-based cell-based dose response assay to identify inhibitors of NADPH oxidase 1 (NOX1): Synthesized analogs.; type: functional
[5] = target: Eukaryotic translation initiation factor 4E (Mus musculus, UniProt P63073); assay: eIF4E–eIF4G protein interaction inhibitors, dose response, biochemical, TR-FRET (AID 855); type: functional;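 note: potency for disrupting eIF4E binding to eIF4GI seen as loss of FRET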
[6] = target: T3, Small ubiquitin-related modifier 1 (Homo sapiens, UniProt P63165); assay: inhibitors of SUMO1 partner interactions, dose response, biochemical, FRET (AID 624383); type: functional; conditions: read-out: IC50_Mean
[7] = target: T4, Small ubiquitin-related modifier 2 (Homo sapiens, UniProt P61956); assay: SUMO2–SIM peptide binding inhibitors, dose response, selectivity assay for SUMO1 interaction inhibitor project, biochemical, fluorescence polarization, uHTS hits (AID 624385); type: functional; conditions: read-out: IC50_Mean
[8] = target: T4, Small ubiquitin-related modifier 2; assay: inhibitors of SUMO2 protein-protein interaction, dose response, selectivity assay for SUMO1 interaction inhibitor project, biochemical, FRET, human SUMO2, uHTS hits (AID 624384); type: functional; conditions: read-out: IC50_Mean
[9] = target: T3, Small ubiquitin-related modifier 1; assay: inhibitors of SUMO1 peptide binding, dose response, biochemical, fluorescence polarization, uHTS hits (AID 624382); type: functional; conditions: read-out: IC50_Mean
[10] = target: Acetyl-CoA acetyltransferase/HMG-CoA reductase (Enterococcus faecalis, UniProt Q9FD70); assay: inhibitors of E. faecalis class II HMGR, confirmation, biochemical, Enterococcus faecalis (AID 1233); type: functional
[11] = target: Sphingosine 1-phosphate receptor 4 (Homo sapiens, UniProt O95977); assay: Fluorescence dose response cell-based high throughput screening assay for antagonists of the Sphingosine 1-Phosphate Receptor 4 (S1P4). [Related pubchem assays: 1524 (Confirmation in triplicates.), 1510 (Primary screen.)]; type: functional
[12] = inhibitors of PGC1a acetylation in cells, dose response, cell-based, cherry-picked samples (AID 720514); type: functional;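 note: potency may reflect raised or lowered acetylation signal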
[13] = target: T5, Microphthalmia-associated transcription factor (Homo sapiens, UniProt O75030); assay: TRPM1 promoter luciferase signal decrease, dose response, MITF inhibitor project, cell-based, SK-MEL-5, cherry-picked, set 3 (AID 493073); type: functional
T5 sequence (O75030 whole entry): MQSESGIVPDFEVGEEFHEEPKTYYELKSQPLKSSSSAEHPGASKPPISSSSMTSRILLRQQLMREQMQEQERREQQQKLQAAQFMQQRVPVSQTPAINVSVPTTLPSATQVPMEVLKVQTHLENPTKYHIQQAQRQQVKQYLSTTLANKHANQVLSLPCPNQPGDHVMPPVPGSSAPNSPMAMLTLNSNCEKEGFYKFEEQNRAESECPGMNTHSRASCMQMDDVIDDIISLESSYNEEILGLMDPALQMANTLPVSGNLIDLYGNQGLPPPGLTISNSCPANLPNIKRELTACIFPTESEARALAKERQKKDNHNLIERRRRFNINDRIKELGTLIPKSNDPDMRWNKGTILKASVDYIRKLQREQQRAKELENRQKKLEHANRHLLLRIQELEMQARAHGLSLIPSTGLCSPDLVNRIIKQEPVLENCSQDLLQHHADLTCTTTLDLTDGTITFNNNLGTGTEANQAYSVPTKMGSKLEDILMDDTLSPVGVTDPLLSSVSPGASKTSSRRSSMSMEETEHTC

[14] = growth suppression of beta-catenin-knockout colon cells, dose response, cell-based, HCT116, human colon tumor (AID 1045); type: functional;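 note: HCT116 colon tumor cells with beta catenin knocked out; cells exposed to compound for 60 hours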
[15] = target: Sphingosine 1-phosphate receptor 1 (Homo sapiens, UniProt P21453); type: functional;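 note: Tango beta-arrestin reporter U2OS cells stimulated with S1P near its EC80; inhibitor potency meaning antagonism of receptor activation by the natural agonist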
[16] = growth suppression of PTEN-null colon cells, dose response, cell-based, HCT116 PTEN knockout (AID 1047); type: functional;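 note: HCT116 colon tumor cells with PTEN knocked out; cells exposed to compound for 60 hours before readout; potency for loss of cell viability measured by luminescence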
Bcl-2-like protein 1 = Bcl-2-like protein 1 (Homo sapiens, UniProt Q07817); assay: BCL-XL inhibitors, dose response, selectivity assay for MCL1 inhibitor project, biochemical, fluorescence polarization, 1536-well (AID 2218)
[17] = target: Induced myeloid leukemia cell differentiation protein Mcl-1 (Homo sapiens, UniProt Q07820); assay: MCL1-BIM BH3 interaction inhibitors, dose response, biochemical, fluorescence polarization, BIM-BH3 peptide, 1536-well (AID 2217)
Leucine aminopeptidase = target: T6, Leucine aminopeptidase (Plasmodium falciparum 3D7, UniProt Q8IL11); assay: P. falciparum M17LAP inhibitors, primary screen, biochemical, fluorogenic H-Leu-NHMec substrate, 1536-well (AID 1619); type: functional
T6 sequence (Q8IL11 whole entry): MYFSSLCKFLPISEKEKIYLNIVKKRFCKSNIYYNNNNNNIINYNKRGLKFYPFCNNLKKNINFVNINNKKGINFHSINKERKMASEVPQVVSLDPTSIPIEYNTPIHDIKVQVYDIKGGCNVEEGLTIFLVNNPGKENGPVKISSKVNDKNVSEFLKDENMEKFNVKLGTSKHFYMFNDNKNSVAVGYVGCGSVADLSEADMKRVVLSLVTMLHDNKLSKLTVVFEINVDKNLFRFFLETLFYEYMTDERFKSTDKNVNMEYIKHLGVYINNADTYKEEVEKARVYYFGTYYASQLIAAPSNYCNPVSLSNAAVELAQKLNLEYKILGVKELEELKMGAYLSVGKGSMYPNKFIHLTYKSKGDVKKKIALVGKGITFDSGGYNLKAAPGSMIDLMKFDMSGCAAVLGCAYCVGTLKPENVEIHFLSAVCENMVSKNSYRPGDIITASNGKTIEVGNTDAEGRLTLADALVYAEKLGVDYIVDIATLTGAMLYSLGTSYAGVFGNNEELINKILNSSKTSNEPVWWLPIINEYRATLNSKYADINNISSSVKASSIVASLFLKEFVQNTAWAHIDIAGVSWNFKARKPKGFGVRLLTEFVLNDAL

Procathepsin L = Procathepsin L (Homo sapiens, UniProt P07711); assay: cathepsin L inhibitors, dose response, counter-screen for M1/M17 aminopeptidase inhibitor project, biochemical, QFRET, 1536-well (AID 2214)
Aspartyl aminopeptidase = Aspartyl aminopeptidase (Plasmodium falciparum 3D7, UniProt Q8I2J3); assay: Counterscreen for inhibitors of M1 and M17 aminopeptidases: QFRET-based biochemical high throughput dose response assay for inhibitors of the Plasmodium falciparum M18 Aspartyl Aminopeptidase (PFM18AAP). [Related PubChem assays: 1619 (Screening assay (M17LAP inhibitors).), 1445 (Screening assay (M1AAP inhibitors).)]
Aspartyl aminopeptidase, sequence (Q8I2J3 whole entry): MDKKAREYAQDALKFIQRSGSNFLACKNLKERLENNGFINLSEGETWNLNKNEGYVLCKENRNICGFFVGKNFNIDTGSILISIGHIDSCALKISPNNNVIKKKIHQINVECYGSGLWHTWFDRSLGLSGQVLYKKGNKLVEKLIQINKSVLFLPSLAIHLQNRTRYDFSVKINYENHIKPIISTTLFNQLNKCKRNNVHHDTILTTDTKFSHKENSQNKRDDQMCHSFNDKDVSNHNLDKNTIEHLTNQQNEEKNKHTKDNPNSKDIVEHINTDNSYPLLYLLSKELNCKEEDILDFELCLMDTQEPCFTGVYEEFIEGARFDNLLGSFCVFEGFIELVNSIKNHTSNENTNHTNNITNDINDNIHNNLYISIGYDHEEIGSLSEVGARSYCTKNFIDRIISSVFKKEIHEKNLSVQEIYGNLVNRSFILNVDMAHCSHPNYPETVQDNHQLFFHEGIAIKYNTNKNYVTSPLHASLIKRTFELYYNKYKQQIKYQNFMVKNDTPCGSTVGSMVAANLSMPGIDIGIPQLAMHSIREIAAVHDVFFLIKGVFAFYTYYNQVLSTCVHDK

T4 sequence (P61956 whole entry): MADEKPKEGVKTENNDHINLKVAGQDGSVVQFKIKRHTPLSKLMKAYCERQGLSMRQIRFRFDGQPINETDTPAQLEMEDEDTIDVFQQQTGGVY
T3 sequence (P63165 whole entry): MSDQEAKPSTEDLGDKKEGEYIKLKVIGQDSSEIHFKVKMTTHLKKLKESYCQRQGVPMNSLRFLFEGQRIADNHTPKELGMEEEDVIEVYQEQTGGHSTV
Bcl-2-like protein 1, sequence (Q07817 whole entry): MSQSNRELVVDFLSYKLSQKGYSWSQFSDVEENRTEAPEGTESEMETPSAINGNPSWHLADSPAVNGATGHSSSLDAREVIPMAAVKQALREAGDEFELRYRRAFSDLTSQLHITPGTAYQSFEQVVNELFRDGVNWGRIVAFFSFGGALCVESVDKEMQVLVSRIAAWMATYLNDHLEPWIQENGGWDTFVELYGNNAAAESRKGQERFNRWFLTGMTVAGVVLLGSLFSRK
Procathepsin L, sequence (P07711 whole entry): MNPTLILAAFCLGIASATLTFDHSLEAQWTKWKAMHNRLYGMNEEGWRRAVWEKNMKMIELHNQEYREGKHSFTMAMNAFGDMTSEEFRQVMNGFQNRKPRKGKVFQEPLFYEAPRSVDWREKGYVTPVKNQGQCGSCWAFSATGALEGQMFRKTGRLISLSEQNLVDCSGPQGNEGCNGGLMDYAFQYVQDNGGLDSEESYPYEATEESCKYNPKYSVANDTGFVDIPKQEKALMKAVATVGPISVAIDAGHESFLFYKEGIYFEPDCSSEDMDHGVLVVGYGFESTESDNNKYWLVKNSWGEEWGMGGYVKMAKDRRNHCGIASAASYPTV
Sphingosine 1-phosphate receptor 1, sequence (P21453 whole entry): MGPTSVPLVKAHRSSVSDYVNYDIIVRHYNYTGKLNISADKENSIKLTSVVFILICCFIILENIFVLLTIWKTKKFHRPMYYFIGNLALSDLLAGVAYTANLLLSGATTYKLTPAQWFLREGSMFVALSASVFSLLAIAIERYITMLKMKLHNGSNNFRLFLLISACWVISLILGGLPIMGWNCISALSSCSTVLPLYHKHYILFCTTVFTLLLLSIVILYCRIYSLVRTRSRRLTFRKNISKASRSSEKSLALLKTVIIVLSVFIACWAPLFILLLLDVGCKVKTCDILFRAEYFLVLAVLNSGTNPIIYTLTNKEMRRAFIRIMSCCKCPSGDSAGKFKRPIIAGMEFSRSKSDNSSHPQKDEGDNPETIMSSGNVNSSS
Induced myeloid leukemia cell differentiation protein Mcl-1, sequence (Q07820 whole entry): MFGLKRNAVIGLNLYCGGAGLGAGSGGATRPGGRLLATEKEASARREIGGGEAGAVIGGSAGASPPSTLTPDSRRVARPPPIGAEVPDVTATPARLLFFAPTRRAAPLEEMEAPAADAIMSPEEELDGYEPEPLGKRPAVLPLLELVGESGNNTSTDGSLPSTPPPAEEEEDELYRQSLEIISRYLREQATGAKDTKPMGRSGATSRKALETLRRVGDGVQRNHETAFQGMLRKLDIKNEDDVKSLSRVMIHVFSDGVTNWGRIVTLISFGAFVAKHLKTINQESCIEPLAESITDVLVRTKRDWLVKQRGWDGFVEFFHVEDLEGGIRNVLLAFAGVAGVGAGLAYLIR
Eukaryotic translation initiation factor 4E, sequence (P63073 whole entry): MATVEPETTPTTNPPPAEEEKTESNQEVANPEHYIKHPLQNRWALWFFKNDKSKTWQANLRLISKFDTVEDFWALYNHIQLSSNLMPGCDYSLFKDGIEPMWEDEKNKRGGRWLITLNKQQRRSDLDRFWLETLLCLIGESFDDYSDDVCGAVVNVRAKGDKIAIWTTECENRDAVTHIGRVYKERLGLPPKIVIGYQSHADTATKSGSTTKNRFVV
Sphingosine 1-phosphate receptor 4, sequence (O95977 whole entry): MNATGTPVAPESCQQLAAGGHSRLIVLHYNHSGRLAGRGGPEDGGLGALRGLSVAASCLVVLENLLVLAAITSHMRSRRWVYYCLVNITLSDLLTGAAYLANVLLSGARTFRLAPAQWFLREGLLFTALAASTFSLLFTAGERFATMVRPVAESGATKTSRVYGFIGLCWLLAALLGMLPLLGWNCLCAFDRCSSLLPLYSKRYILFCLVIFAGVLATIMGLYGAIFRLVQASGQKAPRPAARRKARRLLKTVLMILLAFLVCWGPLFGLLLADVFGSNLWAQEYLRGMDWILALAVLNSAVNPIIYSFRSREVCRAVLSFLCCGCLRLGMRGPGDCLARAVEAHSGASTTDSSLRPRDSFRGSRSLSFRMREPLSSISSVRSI

IC50 (Bcl-2-related protein A1 [1]): 1.25 µM (active) | IC50 (Bcl-2-related protein A1 [2]): 1.32 µM (active)
SMILES: C[C@H]1CN(C2=C(Cl)C(=O)N(c3ccc(Cl)c(Cl)c3)C2=O)CCN1

IC50 (NADPH oxidase 1 [3]): > 20 µM (not active) | IC50 (NADPH oxidase 1 [4]): > 50 µM (not active)
SMILES: COc1ccc2c(c1)S(=O)(=O)c1ccccc1N2

SMILES: O=C(CSc1nc(-c2ccccc2)nc2c1Cc1ccccc1O2)Nc1ccc(C(=O)O)cc1
IC50 [5]: 17.1 µM (active) | IC50 [6]: 5.3 µM (active) | IC50 [7]: 35.1 µM (inactive) | IC50 [8]: 6.38 µM (active) | IC50 [9]: 23.1 µM (inactive) | IC50 [10]: 164 µM (active)

SMILES: Cc1ccc(C)c(C(=O)Cn2ncc(Cl)c(Cl)c2=O)c1
IC50 [11]: 2.99 µM (active) | AC50 [12]: 8.4 µM (active) | AC50 [13]: 14.5 µM (active) | EC50 [14]: 2.35 µM (active) | IC50 [15]: 12.1 µM (not active) | EC50 [16]: 3.56 µM (active)

IC50 (Bcl-2-like protein 1): > 109 µM (not active) | IC50 [17]: > 109 µM (not active)
SMILES: Cc1ccc(-c2csc3ncn(CC#N)c(=O)c23)cc1C

IC50 (Leucine aminopeptidase): 6.23 µM (active) | IC50 (Procathepsin L): > 59.6 µM (not active) | IC50 (Aspartyl aminopeptidase): > 73.5 µM (not active)
SMILES: O=C(O)C1CC=CCC1C(=O)Nc1cccc(Cl)c1 (stereo unspecified)
